Test results reported in patent US6355428B1, “Nucleic acid ligand interaction assays” (Genelabs Technologies, Inc., priority 1998, dated 2002).

Legend:
[1] = tested on: G/C rich sequence 5′-CGCGCC-3′ (SEQ ID NO: 7) F/Q indicator pair; test: Fluorescence quenching direct binding assay, G/C rich DNA; conditions: change in fluorescence similar to single-stranded controls
Protocol: The specific examples described in this section employ fluorescence quenching as the detection system. In these examples, because conditions are adjusted to maintain the oligonucleotides in single-stranded form in the absence of the ligand, the assay starts with the system at a high or maximum level of fluorescence, and fluorescence generally decreases, depending on binding affinity, as the ligand is added.
In the Figure legends, RNA oligonucleotides are denoted by an “r” at the beginning of the sequence, and single stranded controls by “ss” at the end of the sequence. These single stranded sequence, are used alone in control experiments, which thus employ only an “F” strand and no complementary quenching strand. Any quenching of fluorescence that is not due to hybridization can thus be acounted for. Maximum quenching expected on complete hybridization of these oligonucleotides is 85-90%; therefore some signal remains after complete hybridization. […]
According to the general method described above, increasing amounts of netropsin or actinomycin, respectively, were added to mixtures of selected F/Q indicator oligonucleotide pairs, whose sequences are shown in the legends of FIGS. 1 and 3. […] The Figures show the level of fluorescence observed, relative to a control having no added drug, for each indicator pair (or single strand) as the level of added drug was increased. […]

[2] = tested on: indicator oligo SEQ ID NO: 12 (mixed sequence) versus unlabeled competitor dsDNA; test: ECL competitive assay with 12-base duplex competitor oligos; type: binding; conditions: competitor having only one A/T base pair; 0.008 to 8.33 μM competitor
Protocol: Three 12-base duplex competitor oligos, containing 1-, 5-, and 8-base stretches of A/T's flanked by G/C sequences, were tested as competitors, using distamycin as the binding ligand and SEQ ID NO: 12 (mixed sequence) as the indicator oligo. The indicator pair was labeled with a 5′ ruthenium chelate on one strand and a 3′biotin on the complementary strand, as described above and in Example 14.
Distamycin was premixed at […] with 0.25 nM indicator oligo. The assay was conducted as described in Example 14, using the Igen Origen® apparatus. Ligand binding, which stabilizes the duplexed form of the indicator DNA, results in an increase in the ECL signal. Unlabeled competitor dsDNA (no ruthenium or biotin label) was then added at concentrations ranging from 0.008 to 8.33 μM, and the decrease in the signal was monitored, as shown in FIG. 13.
An indicator pair of oligonucleotides, having the sequence SEQ ID NO: 12 and complement, were labeled with a 5′ ruthenium (bipy) chelate on one strand, as described in U.S. Pat. No. 5,635,347 and references cited therein, and with a 3′ biotin on the complementary strand. […] The biotinylated strand of DNA was captured on the bead surface, and any ruthenium captured by the streptavidin via drug-stabilized hybridization of the indicator duplex was quantified with the IGEN Origen™ analyzer. […]

| Compound | binding (decrease in fluorescence, FIG. 3A) [1] | competition by competitor oligonucleotide (FIG. 13) [2] |
| --- | --- | --- |
| Cn1cc(NC(=O)c2cc(NC(=O)CN=C(N)N)cn2C)cc1C(=O)NCCC(=N)N [Netropsin, netropsin] | does not bind well |  |
| Cn1cc(NC(=O)c2cc(NC(=O)c3cc(NC=O)cn3C)cn2C)cc1C(=O)NCCC(=N)N [Distamycin, distamycin] |  | little competition was observed |
